≈ marks a conversion by molar mass, not a printed value. Where two headings read alike, the source gives them in different places.
Columns and labels:
TYK2-JH2 domain = molecular target: T1, TYK2-JH2 domain (Homo sapiens, UniProt P29597); experiment: Binding activity test for JH2 domain of TYK2 (Tb-antibody/tracer FRET); details: for JAK1/TYK2 selectivity: ratio JAK1-JH2 IC50 / TYK2-JH2 IC50
T1 construct: IC50 on JH2 domain activity (nM)
In short: (§1)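 FRET read-out after 60 min at 25° C plus overnight at 4° C; tracer displacement detected via Tb-labelled antibody on the JH2 domain. Dose-response used 11 points at 3-fold dilution.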

Kinetic solubility = assay type: physicochemical; details: phosphate buffer, aqueous buffer, kinetic from dmso stock, PBS (pH 7.4), 1% DMSO, room temperature
Protocol: Aliquots of 8 μL of reference and test compound stock solutions (10 mM/5 mM) are added into 792 μL of 100 mM pH 7.4 phosphate buffer. The final DMSO concentration is 1%. Sample tubes are shaken for 2 hours at 1000 rpm at room temperature. Samples are centrifuged at 12000 rpm for 10 min to precipitate un-dissolved particles. And transfer the supernatants to a new tube or plate. Add 5 μL of samples (no diluted, 10 times diluted and 100 times diluted) and standard curve samples to 95 μL of ACN containing IS for LC-MS/MS analysis.

[1] = molecular target: T2, Ba/F3-FL-TYK2-P760L cells (Homo sapiens, UniProt P29597, P760L, cells depend on it); experiment: Anti-proliferative assay, Ba/F3-FL-TYK2-P760L cells (Cell-Titer Glo); assay type: cell-based; details: 72 h, read-out: BaF3-FL-T2P760L IC50
T2 construct: BaF3-FL-T2P760L (nM)
T2 sequence (P29597 whole entry P760L): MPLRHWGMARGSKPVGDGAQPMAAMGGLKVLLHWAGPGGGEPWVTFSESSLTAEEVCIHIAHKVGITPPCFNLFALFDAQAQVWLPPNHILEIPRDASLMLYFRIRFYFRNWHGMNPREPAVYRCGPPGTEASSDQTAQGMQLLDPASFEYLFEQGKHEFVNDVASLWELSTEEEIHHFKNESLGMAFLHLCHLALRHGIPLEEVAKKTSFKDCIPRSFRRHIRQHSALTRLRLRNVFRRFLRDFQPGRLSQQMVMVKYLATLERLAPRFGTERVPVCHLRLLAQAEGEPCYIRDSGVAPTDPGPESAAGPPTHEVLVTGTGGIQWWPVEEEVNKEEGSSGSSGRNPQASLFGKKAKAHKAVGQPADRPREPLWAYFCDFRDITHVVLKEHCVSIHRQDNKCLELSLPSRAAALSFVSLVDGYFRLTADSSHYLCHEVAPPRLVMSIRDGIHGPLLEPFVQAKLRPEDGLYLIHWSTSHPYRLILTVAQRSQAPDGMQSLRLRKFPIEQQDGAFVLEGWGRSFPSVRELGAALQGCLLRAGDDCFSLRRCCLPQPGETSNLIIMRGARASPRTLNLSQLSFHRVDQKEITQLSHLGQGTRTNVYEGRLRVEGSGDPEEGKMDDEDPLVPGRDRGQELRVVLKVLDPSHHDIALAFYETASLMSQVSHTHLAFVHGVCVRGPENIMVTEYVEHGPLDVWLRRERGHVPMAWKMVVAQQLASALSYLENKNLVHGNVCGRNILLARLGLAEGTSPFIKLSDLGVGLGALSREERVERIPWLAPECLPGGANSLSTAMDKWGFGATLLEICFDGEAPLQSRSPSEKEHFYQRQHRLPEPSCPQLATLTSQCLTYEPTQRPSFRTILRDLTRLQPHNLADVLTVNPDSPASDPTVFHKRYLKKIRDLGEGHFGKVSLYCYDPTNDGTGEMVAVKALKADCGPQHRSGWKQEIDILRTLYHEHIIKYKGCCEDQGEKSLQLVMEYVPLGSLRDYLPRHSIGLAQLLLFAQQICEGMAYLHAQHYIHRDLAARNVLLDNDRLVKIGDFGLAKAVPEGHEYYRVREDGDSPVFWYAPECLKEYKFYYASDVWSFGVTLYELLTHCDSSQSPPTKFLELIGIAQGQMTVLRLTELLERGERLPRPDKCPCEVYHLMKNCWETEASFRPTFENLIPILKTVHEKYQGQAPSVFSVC
In short: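 Compound exposure ran 72 h at 37 °C in 5% CO2 across nine 3-fold concentrations from a 20 μM top dose, added 24 h after seeding 2000 cells/well.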

TYK2 = molecular target: T3, TYK2 (Homo sapiens, UniProt P29597); experiment: TYK2 kinase activity, microfluidic assay (Caliper EZ Reader II); assay type: biochemical; details: TYK2 1 nM, 1 mM ATP
T3 construct: purchased Carna Biosciences
T3 sequence (P29597 whole entry): as the sequence (P29597 whole entry P760L) above, with L760P counted along it
Protocol: (§2) Testing for JAK1, JAK2 and TYK2 Kinase Activities
(§3) JAK activity was determined in the reaction buffer 50 mM HEPES, 0.01% Brij35, 10 mM MgCl2, 2 mM DTT by a microfluidic assay. The phosphorylation of a FAM labeled peptide substrate was monitored in the Caliper EZ Reader II (Perkin Elmer). The assay condition for each batch of enzyme (Carna Biosciences) was optimized to obtain 10% conversion rate of peptide substrate.
(§4) The test compounds were dissolved in DMSO to a stock concentration of 10 mM. Three-fold serially diluted compounds with top concentration of 5 μM were pre-incubated with JAK1, JAK2 or TYK2 for 10 min at ambient temperature. The final DMSO concentration of assay mixture was 1%. […] The reaction was stopped by adding 50 mM EDTA.
(§5) The percent inhibition was calculated by the following formula:
(§6) [formula] • wherein • Conversion %_max=the conversion rate in the positive well without addition of compound • Conversion %_sample=the conversion rate of test compounds • Conversion %_min=the conversion rate in the well without addition of enzyme
(§7) The dose-response (percent inhibition) curve was plotted and IC50 values were determined by GraphPad software.

[2] = Plasma protein binding by equilibrium dialysis; assay type: in vitro ADME; details: human plasma, equilibrium dialysis 5 hours at 37° C.; read-out: % Bound (human) (converted)
Protocol: Plasma Protein Binding by Equilibrium Dialysis
Aliquots of test compound stock solution and warfarin stock solution were spiked into plasma to give the matrix solutions with theoretical concentrations of test compound at 0.2 and 2 μM or warfarin at 2 μM. Immediately transfer 50 μL of the spiked plasma solution suspension to a 96-well plate to act as T=0 control sample. Assemble the dialysis set up following the manufacturer's instructions. Load cells with 150 μL of plasma sample and dialyzed against equal volume of dialysis buffer (PBS). The assay is performed in duplicate. Cover the unit with gas permeable lid and incubate for 5 hours at 37° C. at 100 rpm in a constant temperature shaking box. At the end of incubation, remove lid and pipette 50 μL of post-dialysis samples from both buffer and plasma solution chambers into separated 96-well plate for analysis, respectively. Add 50 μL of plasma solution to the buffer samples, and an equal volume of PBS to the collected plasma solution samples. Shake the plate at 1000 rpm for 2 minutes and add 600 μL of 50% ACN/MeOH containing an appropriate internal standard (IS) to precipitate protein and release compound. Vortex at 1000 rpm for 10 minutes. Centrifuge for 10 minutes at 4000 rpm. Then transfer 75 μL of the supernatant to new 96-well plates for analysis. Add 150 μL of distilled water to each sample and mix for analysis by LC-MS/MS.
The free rate (% Unbound), binding rate (% Bound), and recovery rate (% Recovery) of the compound are calculated as follows: […]

JAK1-JH2 domain = molecular target: T4, JAK1-JH2 domain (Homo sapiens, UniProt P23458); experiment: Binding activity test for JH2 domain of JAK1 (Tb-antibody/tracer FRET)
T4 construct: IC50 on JH2 domain activity (nM)
T4 sequence (P23458 583-855 limits assumed): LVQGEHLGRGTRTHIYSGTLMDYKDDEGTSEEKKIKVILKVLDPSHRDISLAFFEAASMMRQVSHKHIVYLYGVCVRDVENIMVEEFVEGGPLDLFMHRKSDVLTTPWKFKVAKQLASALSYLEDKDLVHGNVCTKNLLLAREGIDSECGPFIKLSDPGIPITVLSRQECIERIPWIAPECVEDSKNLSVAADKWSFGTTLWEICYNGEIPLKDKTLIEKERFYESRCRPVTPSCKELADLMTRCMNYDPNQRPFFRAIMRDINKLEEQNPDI
In short: as §1

JAK1 = molecular target: T5, JAK1 (Homo sapiens, UniProt P23458); experiment: JAK1 kinase activity, microfluidic assay (Caliper EZ Reader II); assay type: biochemical; details: JAK1 5 nM, 1 mM ATP
T5 construct: purchased Carna Biosciences
T5 sequence (P23458 whole entry): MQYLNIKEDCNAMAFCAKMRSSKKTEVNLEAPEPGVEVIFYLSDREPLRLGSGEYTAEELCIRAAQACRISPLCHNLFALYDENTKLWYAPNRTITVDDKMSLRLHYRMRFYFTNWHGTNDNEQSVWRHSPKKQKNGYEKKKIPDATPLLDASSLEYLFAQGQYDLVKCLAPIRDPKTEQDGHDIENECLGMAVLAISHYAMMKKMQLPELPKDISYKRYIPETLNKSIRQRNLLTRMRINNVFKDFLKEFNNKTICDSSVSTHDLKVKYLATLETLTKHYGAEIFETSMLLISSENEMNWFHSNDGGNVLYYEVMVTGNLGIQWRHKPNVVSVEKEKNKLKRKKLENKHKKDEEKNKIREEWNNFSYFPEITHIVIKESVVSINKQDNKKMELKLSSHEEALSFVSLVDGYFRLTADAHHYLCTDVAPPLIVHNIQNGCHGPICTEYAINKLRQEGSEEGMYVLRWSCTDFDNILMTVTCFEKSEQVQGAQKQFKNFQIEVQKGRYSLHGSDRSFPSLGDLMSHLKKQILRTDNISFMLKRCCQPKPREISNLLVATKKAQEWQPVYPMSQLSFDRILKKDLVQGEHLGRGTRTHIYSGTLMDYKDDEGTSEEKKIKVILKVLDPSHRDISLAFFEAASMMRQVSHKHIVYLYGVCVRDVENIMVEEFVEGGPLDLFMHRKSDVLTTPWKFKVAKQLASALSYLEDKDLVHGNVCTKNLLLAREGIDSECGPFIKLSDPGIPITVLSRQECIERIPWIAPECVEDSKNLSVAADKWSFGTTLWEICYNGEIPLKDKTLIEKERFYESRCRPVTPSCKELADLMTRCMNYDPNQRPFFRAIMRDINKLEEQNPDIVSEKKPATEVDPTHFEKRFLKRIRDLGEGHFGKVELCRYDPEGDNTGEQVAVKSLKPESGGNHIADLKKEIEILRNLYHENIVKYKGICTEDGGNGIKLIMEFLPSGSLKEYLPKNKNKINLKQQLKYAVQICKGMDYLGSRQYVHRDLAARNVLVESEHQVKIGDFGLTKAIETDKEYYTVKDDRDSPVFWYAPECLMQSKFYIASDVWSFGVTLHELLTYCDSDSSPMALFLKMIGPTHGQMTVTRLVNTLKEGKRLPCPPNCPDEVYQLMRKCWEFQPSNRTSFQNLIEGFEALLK
Protocol: as §2, §3, §4, §5, §6, §7

JAK2 = molecular target: T6, JAK2 (Homo sapiens, UniProt O60674); experiment: JAK2 kinase activity, microfluidic assay (Caliper EZ Reader II); assay type: biochemical; details: JAK2 0.125 nM, 1 mM ATP
T6 construct: purchased Carna Biosciences
T6 sequence (O60674 whole entry): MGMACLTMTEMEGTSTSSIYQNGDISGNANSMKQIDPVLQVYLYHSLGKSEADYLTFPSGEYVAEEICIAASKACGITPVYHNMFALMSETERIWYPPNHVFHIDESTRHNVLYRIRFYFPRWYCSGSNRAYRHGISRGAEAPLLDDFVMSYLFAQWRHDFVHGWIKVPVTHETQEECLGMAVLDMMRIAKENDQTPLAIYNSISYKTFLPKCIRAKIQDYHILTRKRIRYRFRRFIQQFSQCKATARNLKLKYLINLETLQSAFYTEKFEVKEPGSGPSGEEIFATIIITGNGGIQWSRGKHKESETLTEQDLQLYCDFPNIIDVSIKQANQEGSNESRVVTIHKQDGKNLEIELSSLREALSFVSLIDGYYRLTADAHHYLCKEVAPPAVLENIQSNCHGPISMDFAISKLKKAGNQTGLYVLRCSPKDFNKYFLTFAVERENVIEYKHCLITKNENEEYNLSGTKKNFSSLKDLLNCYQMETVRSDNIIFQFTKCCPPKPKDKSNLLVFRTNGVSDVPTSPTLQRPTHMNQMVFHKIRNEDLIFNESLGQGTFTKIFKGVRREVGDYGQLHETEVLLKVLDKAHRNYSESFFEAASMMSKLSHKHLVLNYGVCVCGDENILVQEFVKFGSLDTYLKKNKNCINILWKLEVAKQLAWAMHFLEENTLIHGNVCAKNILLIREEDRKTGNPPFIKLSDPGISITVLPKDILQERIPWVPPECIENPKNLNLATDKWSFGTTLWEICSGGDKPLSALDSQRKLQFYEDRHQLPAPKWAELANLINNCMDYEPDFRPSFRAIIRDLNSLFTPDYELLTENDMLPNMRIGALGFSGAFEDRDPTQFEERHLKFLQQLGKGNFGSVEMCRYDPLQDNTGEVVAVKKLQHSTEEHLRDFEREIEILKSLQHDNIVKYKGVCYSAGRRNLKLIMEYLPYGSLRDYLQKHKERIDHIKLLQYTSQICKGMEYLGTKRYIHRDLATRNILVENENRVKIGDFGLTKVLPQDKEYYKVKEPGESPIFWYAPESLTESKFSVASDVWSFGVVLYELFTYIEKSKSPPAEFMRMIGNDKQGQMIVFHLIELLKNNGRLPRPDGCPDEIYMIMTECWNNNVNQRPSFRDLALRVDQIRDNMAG
Protocol: as §2, §3, §4, §5, §6, §7

[3] = Microsomal metabolic stability assay; assay type: in vitro ADME; details: pH 7.4, 0.5 mg/mL protein, 1 μM compound
In short: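 Parent loss was tracked by LC/MS/MS at 0, 5, 15, 30 and 45 min, with half-life derived from the ln(% remaining)–time slope. Incubation at 37 °C, pH 7.4 phosphate/EDTA buffer: 0.5 mg/mL microsomes, 1 μM compound, NADPH-regenerated (2 mM).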

[4] = dog liver microsomes, read-out: Dog LM Clint
[5] = dog liver microsomes, read-out: Dog LM T½
[6] = human liver microsomes, read-out: Human LM Clint
[7] = human liver microsomes, read-out: Human LM T½
[8] = rat liver microsomes, read-out: Rat LM Clint
[9] = rat liver microsomes, read-out: Rat LM T½

T1 sequence (P29597 589-875 limits assumed): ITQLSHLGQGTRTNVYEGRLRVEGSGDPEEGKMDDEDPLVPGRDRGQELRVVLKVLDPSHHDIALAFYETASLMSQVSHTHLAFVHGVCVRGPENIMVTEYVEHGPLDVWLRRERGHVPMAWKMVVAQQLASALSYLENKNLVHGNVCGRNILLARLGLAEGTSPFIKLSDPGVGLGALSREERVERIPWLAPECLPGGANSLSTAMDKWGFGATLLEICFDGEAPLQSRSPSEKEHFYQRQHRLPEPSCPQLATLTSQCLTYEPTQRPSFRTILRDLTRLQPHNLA

SMILES | IC50 (TYK2-JH2 domain) [nM] | JAK1/TYK2 selectivity (TYK2-JH2 domain) | solubility at 2 h (Kinetic solubility) [µM] | GI50 [1] [nM] | IC50 (TYK2) [nM] | fraction unbound at 5 h [2] | IC50 (JAK1-JH2 domain) [nM] | IC50 (JAK1) [nM] | IC50 (JAK2) [nM] | microsomal CLint at 1 μM [3, 4] [µL/min/mg] | half-life at 1 μM [3, 5] [min] | microsomal CLint at 1 μM [3, 6] [µL/min/mg] | half-life at 1 μM [3, 7] [min] | microsomal CLint at 1 μM [3, 8] [µL/min/mg] | half-life at 1 μM [3, 9] [min]
CCn1ncc2cnc(Nc3cc(NC(=O)C4CC4)ncc3C(=O)NC)c(OC)c21 [Example 261, 6-(Cyclopropanecarboxamido)-4-((1-ethyl-7-methoxy-1H-pyrazolo[4,3-c]pyridin-6-yl)amino)-N-methylnicotinamide] | 0.956 | 47.4 | 58 (≈ 23.8 µg/mL) | 113 | > 5000 | 0.085 | 45.4 | > 5000 | > 5000 |  |  |  |  |  | 
[2H]C([2H])([2H])NC(=O)c1cnc(NC(=O)C2CC2)cc1Nc1ccc2cn[nH]c2c1OC [Example 207, 6-(Cyclopropanecarboxamido)-4-((7-methoxy-1H-indazol-6-yl)amino)-N-(methyl-d3)nicotinamide] | 0.407 |  | 8.45 (≈ 3.24 µg/mL) | 149 |  | 0.039 |  |  |  |  |  |  |  |  | 
CNC(=O)c1nnc(NC(=O)C2CC2)cc1Nc1cn(C)c2ccn(C)c(=O)c12 [Example 49, 6-(Cyclopropanecarboxamido)-4-((1,5-dimethyl-4-oxo-4,5-dihydro-1H-pyrrolo[3,2-c]pyridin-3-yl)amino)-N-methylpyridazine-3-carboxamide] |  |  | 6.3 (≈ 2.49 µg/mL) | 111 |  |  |  |  |  | < 11.5 | > 120 | 14.4 | 96.2 | 32.4 | 42.8
[2H]C([2H])([2H])NC(=O)c1cnc(NC(=O)C2CC2)cc1Nc1ccc2cnn(C)c2c1OC [Example 206, 6-(Cyclopropanecarboxamido)-4-((7-methoxy-1-methyl-1H-indazol-6-yl)amino)-N-(methyl-d3)nicotinamide] | 0.623 | 17.6 | 28.7 (≈ 11.4 µg/mL) | 68.5 |  | 0.07 | 11 |  |  |  |  |  |  |  | 
[2H]C([2H])([2H])NC(=O)c1cnc(NC(=O)C2CC2)cc1Nc1ccc2cnn(CC(F)F)c2c1OC [Example 131, 6-(Cyclopropanecarboxamido)-4-((1-(2,2-difluoroethyl)-7-methoxy-1H-indazol-6-yl)amino)-N-(methyl-d3)nicotinamide] | 0.33 | 40.2 | 32.1 (≈ 14.4 µg/mL) | 65.4 |  | 0.046 | 13.3 |  |  | 65.8 | 21.1 | 95 | 14.6 | 109 | 12.8
[2H]C([2H])([2H])NC(=O)c1cnc(NC(=O)C2CC2)cc1Nc1ccc2ncn(CC)c2c1OC [Example 167, 6-(Cyclopropanecarboxamido)-4-((1-ethyl-7-methoxy-1H-benzo[d]imidazol-6-yl)amino)-N-(methyl-d3)nicotinamide] |  |  | 109 (≈ 44.9 µg/mL) | 100 |  |  |  |  |  | 45 | 30.8 | 57.8 | 24 | 149 | 9.29

Reference: patent US20250115597A1, “TYK2 INHIBITORS AND COMPOSITIONS AND METHODS THEREOF” (LYNK PHARMACEUTICALS CO. LTD., priority 2021, published 2025)
